Holding throughout (assay): relative viability (nuclei count vs DMSO), 5 days (fraction); higher = more cells survive
Compound in the assay “Lapatinib + Olaparib”: CS(=O)(=O)CCNCc1ccc(-c2ccc3ncnc(Nc4ccc(OCc5cccc(F)c5)c(Cl)c4)c3c2)o1 [Lapatinib] + O=C(c1cc(Cc2n[nH]c(=O)c3ccccc23)ccc1F)N1CCN(C(=O)C2CC2)CC1 [Olaparib] (partner 8 µM)
Summed up: (§1)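 For relative viability, nuclei counts in treated wells were divided by those in vehicle wells. Lung cancer cell lines had been pin-tool dosed in 1536-well plates the day after seeding and cultured for 5 days, then fixed and stained in one step (final 0.05% Triton X-100, 1% formaldehyde, 1 ug/ml Hoechst) and imaged at 4×. Doses were one drug alone or a fixed anchor-drug dose plus five library-drug doses (not always all listed) in √10 steps, and values are duplicate-plate medians.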

Compound in the assay “Lapatinib + Dasatinib”: CS(=O)(=O)CCNCc1ccc(-c2ccc3ncnc(Nc4ccc(OCc5cccc(F)c5)c(Cl)c4)c3c2)o1 [Lapatinib] + Cc1nc(Nc2ncc(C(=O)Nc3c(C)cccc3Cl)s2)cc(N2CCN(CCO)CC2)n1 [Dasatinib] (partner 0.075 µM)
Summed up:
as §1

Compound in the assay “Wnt-C59 + OSI-027”: CC1=NC=CC(=C1)C2=CC=C(C=C2)CC(=O)NC3=CC=C(C=C3)C4=CN=CC=C4 [Wnt-C59] + COc1cccc2cc(-c3nc([C@H]4CC[C@H](C(=O)O)CC4)n4ncnc(N)c34)[nH]c12 [OSI-027] (partner 0.5 µM)
Summed up:
as §1

Compound in the assay “Wnt-C59 + Olaparib”: CC1=NC=CC(=C1)C2=CC=C(C=C2)CC(=O)NC3=CC=C(C=C3)C4=CN=CC=C4 [Wnt-C59] + O=C(c1cc(Cc2n[nH]c(=O)c3ccccc23)ccc1F)N1CCN(C(=O)C2CC2)CC1 [Olaparib] (partner 8 µM)
Summed up: as §1

As to LK-2, the relative viability was 0.598 with Lapatinib + Olaparib (first compound 0.02 µM); 0.78 with Lapatinib + Olaparib (first compound 0.2 µM); 0.702 with Lapatinib + Olaparib (first compound 0.6325 µM); 0.859 with Lapatinib + Olaparib (first compound 2 µM); 0.264 with Lapatinib + Dasatinib (first compound 0.2 µM); 0.283 in the assay with Lapatinib + Dasatinib (first compound 0.6325 µM). For the same cell line, the relative viability is 0.35 with Lapatinib + Dasatinib (first compound 2 µM); 0.211 with Wnt-C59 + OSI-027 (first compound 0.001 µM); 0.265 in the assay with Wnt-C59 + OSI-027 (first compound 0.01 µM); 0.199 with Wnt-C59 + OSI-027 (first compound 0.03162 µM); 0.229 in the assay with Wnt-C59 + OSI-027 (first compound 0.1 µM); 0.728 in the assay with Wnt-C59 + Olaparib (first compound 0.001 µM). The relative viability with Wnt-C59 + Olaparib (first compound 0.01 µM) stood at 0.819; in the assay with Wnt-C59 + Olaparib (first compound 0.03162 µM) it was 0.739; with Wnt-C59 + Olaparib (first compound 0.1 µM) it was 0.748.

As to LOU-NH91, the relative viability amounted to 0.921 in the assay with Lapatinib + Olaparib (first compound 0.02 µM); 0.748 with Lapatinib + Olaparib (first compound 0.06325 µM); 0.836 with Lapatinib + Olaparib (first compound 0.2 µM); 0.696 with Lapatinib + Olaparib (first compound 0.6325 µM); 0.617 with Lapatinib + Olaparib (first compound 2 µM); 0.365 in the assay with Lapatinib + Dasatinib (first compound 0.02 µM). Further, the relative viability with Lapatinib + Dasatinib (first compound 0.06325 µM) was determined as 0.398; in the assay with Lapatinib + Dasatinib (first compound 0.2 µM), 0.431; in the assay with Lapatinib + Dasatinib (first compound 0.6325 µM), 0.46; in the assay with Lapatinib + Dasatinib (first compound 2 µM) it was 0.404; in the assay with Wnt-C59 + OSI-027 (first compound 0.001 µM), 0.76; in the assay with Wnt-C59 + OSI-027 (first compound 0.01 µM), 0.571. In addition, the relative viability with Wnt-C59 + OSI-027 (first compound 0.03162 µM) is 0.718; with Wnt-C59 + OSI-027 (first compound 0.1 µM), 0.738; with Wnt-C59 + Olaparib (first compound 0.001 µM), 0.966; with Wnt-C59 + Olaparib (first compound 0.01 µM), 0.873; in the assay with Wnt-C59 + Olaparib (first compound 0.03162 µM), 0.955; with Wnt-C59 + Olaparib (first compound 0.1 µM) it was 0.883.

For LU99A, the relative viability in the assay with Lapatinib + Olaparib (first compound 0.02 µM) is 0.302; in the assay with Lapatinib + Olaparib (first compound 0.06325 µM) it was 0.282; with Lapatinib + Olaparib (first compound 0.2 µM), 0.276; with Lapatinib + Olaparib (first compound 0.6325 µM) it was 0.237; with Lapatinib + Olaparib (first compound 2 µM) it was 0.234; with Lapatinib + Dasatinib (first compound 0.02 µM), 0.492. Besides, the relative viability in the assay with Lapatinib + Dasatinib (first compound 0.06325 µM) is 0.408; with Lapatinib + Dasatinib (first compound 0.2 µM) it was 0.453; with Lapatinib + Dasatinib (first compound 0.6325 µM), 0.587; with Lapatinib + Dasatinib (first compound 2 µM), 0.475; with Wnt-C59 + OSI-027 (first compound 0.001 µM) it was 0.307; with Wnt-C59 + OSI-027 (first compound 0.01 µM), 0.281. Also, the relative viability with Wnt-C59 + OSI-027 (first compound 0.03162 µM) came to 0.342; in the assay with Wnt-C59 + OSI-027 (first compound 0.1 µM), 0.274; in the assay with Wnt-C59 + Olaparib (first compound 0.001 µM), 0.28; with Wnt-C59 + Olaparib (first compound 0.01 µM) it was 0.264; with Wnt-C59 + Olaparib (first compound 0.03162 µM) it was 0.29; with Wnt-C59 + Olaparib (first compound 0.1 µM) it was 0.23.

With LXF-289, the relative viability worked out at 1.06 with Lapatinib + Olaparib (first compound 0.02 µM); 0.97 with Lapatinib + Olaparib (first compound 0.06325 µM); 1.04 in the assay with Lapatinib + Olaparib (first compound 0.2 µM); 1.04 with Lapatinib + Olaparib (first compound 0.6325 µM); 0.998 with Lapatinib + Olaparib (first compound 2 µM); 0.0714 with Lapatinib + Dasatinib (first compound 0.02 µM). Also, the relative viability in the assay with Lapatinib + Dasatinib (first compound 0.06325 µM) came to 0.116; with Lapatinib + Dasatinib (first compound 0.2 µM), 0.224; with Lapatinib + Dasatinib (first compound 0.6325 µM), 0.273; with Lapatinib + Dasatinib (first compound 2 µM) it was 0.179; in the assay with Wnt-C59 + OSI-027 (first compound 0.001 µM) it was 0.779; with Wnt-C59 + OSI-027 (first compound 0.01 µM), 0.807. In addition, the relative viability was found to be 0.828 with Wnt-C59 + OSI-027 (first compound 0.03162 µM); 0.809 with Wnt-C59 + OSI-027 (first compound 0.1 µM); 1.14 with Wnt-C59 + Olaparib (first compound 0.001 µM); 1.09 with Wnt-C59 + Olaparib (first compound 0.01 µM); 1.03 with Wnt-C59 + Olaparib (first compound 0.03162 µM); 1.04 in the assay with Wnt-C59 + Olaparib (first compound 0.1 µM).

As to NCI-H23, the relative viability amounted to 0.266 with Lapatinib + Olaparib (first compound 0.2 µM); 0.296 with Lapatinib + Olaparib (first compound 0.6325 µM); 0.2 with Lapatinib + Olaparib (first compound 2 µM); 0.688 with Lapatinib + Dasatinib (first compound 0.2 µM); 0.762 with Lapatinib + Dasatinib (first compound 0.6325 µM); 0.738 in the assay with Lapatinib + Dasatinib (first compound 2 µM). Also, the relative viability with Wnt-C59 + OSI-027 (first compound 0.001 µM) was 0.634; in the assay with Wnt-C59 + OSI-027 (first compound 0.01 µM), 0.499; in the assay with Wnt-C59 + OSI-027 (first compound 0.03162 µM) it was 0.781; with Wnt-C59 + OSI-027 (first compound 0.1 µM), 0.578; with Wnt-C59 + Olaparib (first compound 0.001 µM), 0.353; in the assay with Wnt-C59 + Olaparib (first compound 0.01 µM) it was 0.256. In addition, the figures for the relative viability with Wnt-C59 + Olaparib (first compound 0.03162 µM) and with Wnt-C59 + Olaparib (first compound 0.1 µM) were 0.362 and 0.333, respectively.

Regarding NCI-H1299, the relative viability with Lapatinib + Olaparib (first compound 0.02 µM) is 0.952; in the assay with Lapatinib + Olaparib (first compound 0.06325 µM), 0.99; with Lapatinib + Olaparib (first compound 0.2 µM), 0.93; in the assay with Lapatinib + Olaparib (first compound 0.6325 µM) it was 0.967; with Lapatinib + Olaparib (first compound 2 µM), 0.965; in the assay with Wnt-C59 + Olaparib (first compound 0.001 µM), 0.918. In addition, the relative viability is 0.953 with Wnt-C59 + Olaparib (first compound 0.01 µM), 0.932 in the assay with Wnt-C59 + Olaparib (first compound 0.03162 µM) and 0.937 with Wnt-C59 + Olaparib (first compound 0.1 µM).

As to NCI-H1563, the relative viability with Lapatinib + Dasatinib (first compound 0.02 µM) was 0.505; in the assay with Lapatinib + Dasatinib (first compound 0.06325 µM) it was 0.405; with Lapatinib + Dasatinib (first compound 0.2 µM) it was 0.425; with Lapatinib + Dasatinib (first compound 0.6325 µM) it was 0.491; with Lapatinib + Dasatinib (first compound 2 µM), 0.435; with Wnt-C59 + OSI-027 (first compound 0.001 µM), 0.711. Also, the relative viability was found to be 0.784 with Wnt-C59 + OSI-027 (first compound 0.01 µM), 0.761 in the assay with Wnt-C59 + OSI-027 (first compound 0.03162 µM) and 0.728 in the assay with Wnt-C59 + OSI-027 (first compound 0.1 µM).

Take NCI-H1623: the relative viability in the assay with Lapatinib + Dasatinib (first compound 0.02 µM) is 0.541; with Lapatinib + Dasatinib (first compound 0.06325 µM), 0.491; with Lapatinib + Dasatinib (first compound 0.6325 µM), 0.578; in the assay with Lapatinib + Dasatinib (first compound 2 µM), 0.21; in the assay with Wnt-C59 + OSI-027 (first compound 0.001 µM), 0.429; with Wnt-C59 + OSI-027 (first compound 0.01 µM), 0.383. Also, the values for the relative viability with Wnt-C59 + OSI-027 (first compound 0.03162 µM) and in the assay with Wnt-C59 + OSI-027 (first compound 0.1 µM) were 0.416 and 0.453, respectively.

As to NCI-H1648, the relative viability with Lapatinib + Olaparib (first compound 0.06325 µM) came to 0.466; in the assay with Lapatinib + Olaparib (first compound 0.2 µM), 0.588; with Lapatinib + Olaparib (first compound 0.6325 µM) it was 0.769; in the assay with Lapatinib + Olaparib (first compound 2 µM) it was 0.28; in the assay with Wnt-C59 + OSI-027 (first compound 0.001 µM), 0.292; with Wnt-C59 + OSI-027 (first compound 0.01 µM), 0.285. Also, the relative viability in the assay with Wnt-C59 + OSI-027 (first compound 0.03162 µM) worked out at 0.292; with Wnt-C59 + OSI-027 (first compound 0.1 µM), 0.246; with Wnt-C59 + Olaparib (first compound 0.001 µM), 1.13; in the assay with Wnt-C59 + Olaparib (first compound 0.01 µM), 0.76; with Wnt-C59 + Olaparib (first compound 0.03162 µM), 1.3; with Wnt-C59 + Olaparib (first compound 0.1 µM), 0.679.

Consider NCI-H1703, for which the relative viability in the assay with Lapatinib + Olaparib (first compound 0.02 µM) was found to be 0.312; with Lapatinib + Olaparib (first compound 0.06325 µM) it was 0.489; in the assay with Lapatinib + Olaparib (first compound 0.2 µM) it was 0.392; with Lapatinib + Olaparib (first compound 0.6325 µM), 0.595; in the assay with Lapatinib + Olaparib (first compound 2 µM) it was 0.383; with Wnt-C59 + Olaparib (first compound 0.001 µM), 0.507. Besides, the values for the relative viability in the assay with Wnt-C59 + Olaparib (first compound 0.01 µM), with Wnt-C59 + Olaparib (first compound 0.03162 µM) and with Wnt-C59 + Olaparib (first compound 0.1 µM) were 0.368, 0.611 and 0.322, respectively.

Source of the values: the supplement of paper PMC10307832.
